Reference: ChEMBL document CHEMBL3885861, “Open TG-GATES”

Species on record: Rattus norvegicus
Experiment: Open TG-GATES - Regimen: Daily Repeat
Type: toxicity, organism-based, Sprague-Dawley
Parameters: regimen Daily Repeat, gender Male, age 6 weeks
Conditions: in vivo, po, route gavage; for APTT / Bas / Eos / Fbg / Hb / Ht / Lym / MCH / MCHC / MCV / Mono / Neu / PT / Plat / RBC / Ret / WBC: tissue Blood; for KIDNEY_L / KIDNEY_R / KIDNEY_TOTAL: tissue Kidney; for LIVER: tissue Liver; for A/G / ALP / ALT / AST / BUN / CRE / Ca / Cl / DBIL / GLC / IP / K / LDH / Na / PL / RALB / TBIL / TC / TG / TP / gamma-GTP: tissue Plasma
[1] = 1200 mg/kg, 72 h, dose level Middle, time 3 day
[2] = 1200 mg/kg, […], dose level Middle, time 7 day
[3] = 1200 mg/kg, […], dose level Middle, time 14 day
[4] = 1200 mg/kg, […], dose level Middle, time 28 day
[5] = 4000 mg/kg, 72 h, dose level High, time 3 day
[6] = 4000 mg/kg, […], dose level High, time 7 day
[7] = 4000 mg/kg, […], dose level High, time 14 day
[8] = 4000 mg/kg, […], dose level High, time 28 day

## CCO [ALCOHOL]
[1]
  TERMINAL_BW: 236.1 g
  APTT: 17.5 s
  Bas: 0%
  Eos: 1.2%
  Fbg: 209 mg/dL
  Hb: 13.9 g/dL
  Ht: 41%
  Lym: 74.6%
  MCH: 21.6 pg
  MCHC: 33.8%
  MCV: 64 fL
  Mono: 5.8%
  Neu: 18%
  PT: 11.3 s
  Plat: 124.3 x10_4/uL
  RBC: 642.4 x10_4/ul
  Ret: 7.7%
  WBC: 106.2 x10_2/uL
  KIDNEY_L: 1.1 g
  KIDNEY_R: 1.1 g
  KIDNEY_TOTAL: 2.1 g
  LIVER: 11.5 g
  A/G: 2.3
  ALP: 854.8 IU/L
  ALT: 38.2 IU/L
  AST: 65 IU/L
  BUN: 20.2 mg/dL
  CRE: 0.6 mg/dL
  Ca: 11.2 mg/dL
  Cl: 104 meq/L
  DBIL: 0.026 mg/dL
  GLC: 208.2 mg/dL
  IP: 9 mg/dL
  K: 4.7 meq/L
  LDH: 113.6 IU/L
  Na: 141 meq/L
  PL: 145.6 mg/dL
  RALB: 4.1 g/dL
  TBIL: 0.3 mg/dL
  TC: 74.2 mg/dL
  TG: 89.2 mg/dL
  TP: 5.8 g/dL
  gamma-GTP: 1.4 IU/L
[2]
  TERMINAL_BW: 268.6 g
  APTT: 18.1 s
  Bas: 0%
  Eos: 0.8%
  Fbg: 227.4 mg/dL
  Hb: 14.3 g/dL
  Ht: 42.2%
  Lym: 81.8%
  MCH: 21.3 pg
  MCHC: 33.8%
  MCV: 62.9 fL
  Mono: 6.2%
  Neu: 11.4%
  PT: 11 s
  Plat: 127.6 x10_4/uL
  RBC: 670.6 x10_4/ul
  Ret: 6.1%
  WBC: 112 x10_2/uL
  KIDNEY_L: 1.1 g
  KIDNEY_R: 1.2 g
  KIDNEY_TOTAL: 2.3 g
  LIVER: 13.2 g
  A/G: 2.3
  ALP: 946.6 IU/L
  ALT: 37.4 IU/L
  AST: 64.8 IU/L
  BUN: 20.8 mg/dL
  CRE: 0.5 mg/dL
  Ca: 10.6 mg/dL
  Cl: 103.8 meq/L
  DBIL: 0 mg/dL
  GLC: 202 mg/dL
  IP: 8.4 mg/dL
  K: 4.8 meq/L
  LDH: 108.4 IU/L
  Na: 141 meq/L
  PL: 154.4 mg/dL
  RALB: 4.1 g/dL
  TBIL: 0.3 mg/dL
  TC: 70.6 mg/dL
  TG: 132.4 mg/dL
  TP: 6 g/dL
  gamma-GTP: 1.4 IU/L
[3]
  TERMINAL_BW: 302.2 g
  APTT: 18.2 s
  Bas: 0%
  Eos: 1.2%
  Fbg: 227 mg/dL
  Hb: 15.4 g/dL
  Ht: 45.5%
  Lym: 80%
  MCH: 20.6 pg
  MCHC: 33.9%
  MCV: 60.8 fL
  Mono: 5.4%
  Neu: 13.6%
  PT: 11.4 s
  Plat: 115.9 x10_4/uL
  RBC: 749 x10_4/ul
  Ret: 4.5%
  WBC: 119.1 x10_2/uL
  KIDNEY_L: 1.2 g
  KIDNEY_R: 1.2 g
  KIDNEY_TOTAL: 2.4 g
  LIVER: 13.7 g
  A/G: 1.8
  ALP: 821.6 IU/L
  ALT: 33 IU/L
  AST: 62.2 IU/L
  BUN: 19.2 mg/dL
  CRE: 0.5 mg/dL
  Ca: 10.8 mg/dL
  Cl: 105 meq/L
  DBIL: 0.018 mg/dL
  GLC: 205.6 mg/dL
  IP: 7.4 mg/dL
  K: 4.5 meq/L
  LDH: 104.4 IU/L
  Na: 141.8 meq/L
  PL: 159.8 mg/dL
  RALB: 3.9 g/dL
  TBIL: 0.3 mg/dL
  TC: 79 mg/dL
  TG: 114.2 mg/dL
  TP: 6.1 g/dL
  gamma-GTP: 1 IU/L
[4]
  TERMINAL_BW: 371.8 g
  APTT: 17.5 s
  Bas: 0%
  Eos: 1.4%
  Fbg: 224 mg/dL
  Hb: 15.4 g/dL
  Ht: 46.3%
  Lym: 73.2%
  MCH: 19.1 pg
  MCHC: 33.3%
  MCV: 57.3 fL
  Mono: 6.6%
  Neu: 18.8%
  PT: 11.1 s
  Plat: 104.5 x10_4/uL
  RBC: 809 x10_4/ul
  Ret: 7%
  WBC: 96.6 x10_2/uL
  KIDNEY_L: 1.3 g
  KIDNEY_R: 1.4 g
  KIDNEY_TOTAL: 2.7 g
  LIVER: 14.7 g
  A/G: 1.5
  ALP: 558.4 IU/L
  ALT: 32.8 IU/L
  AST: 64 IU/L
  BUN: 21.4 mg/dL
  CRE: 0.6 mg/dL
  Ca: 10.2 mg/dL
  Cl: 107.4 meq/L
  DBIL: 0 mg/dL
  GLC: 221.2 mg/dL
  IP: 6.6 mg/dL
  K: 4.4 meq/L
  LDH: 83 IU/L
  Na: 141 meq/L
  PL: 151.4 mg/dL
  RALB: 3.6 g/dL
  TBIL: 0.3 mg/dL
  TC: 70.6 mg/dL
  TG: 181.6 mg/dL
  TP: 6.1 g/dL
  gamma-GTP: 1.4 IU/L
[5]
  TERMINAL_BW: 222.6 g
  APTT: 17.5 s
  Bas: 0%
  Eos: 1.4%
  Fbg: 223.4 mg/dL
  Hb: 14 g/dL
  Ht: 41.5%
  Lym: 78%
  MCH: 20.9 pg
  MCHC: 33.7%
  MCV: 62.1 fL
  Mono: 5.6%
  Neu: 15.8%
  PT: 11.3 s
  Plat: 129.6 x10_4/uL
  RBC: 669.2 x10_4/ul
  Ret: 5.5%
  WBC: 91 x10_2/uL
  KIDNEY_L: 1 g
  KIDNEY_R: 1 g
  KIDNEY_TOTAL: 2 g
  LIVER: 10.5 g
  A/G: 2.3
  ALP: 775 IU/L
  ALT: 32 IU/L
  AST: 61 IU/L
  BUN: 16.8 mg/dL
  CRE: 0.5 mg/dL
  Ca: 10.7 mg/dL
  Cl: 103.6 meq/L
  DBIL: 0.022 mg/dL
  GLC: 206 mg/dL
  IP: 8.2 mg/dL
  K: 4.7 meq/L
  LDH: 95.2 IU/L
  Na: 140 meq/L
  PL: 146.4 mg/dL
  RALB: 4 g/dL
  TBIL: 0.3 mg/dL
  TC: 77.6 mg/dL
  TG: 124.4 mg/dL
  TP: 5.7 g/dL
  gamma-GTP: 1.4 IU/L
[6]
  TERMINAL_BW: 252.2 g
  APTT: 18.2 s
  Bas: 0%
  Eos: 1%
  Fbg: 216.8 mg/dL
  Hb: 14.1 g/dL
  Ht: 41.6%
  Lym: 71%
  MCH: 20.7 pg
  MCHC: 33.8%
  MCV: 61.1 fL
  Mono: 6.4%
  Neu: 21.8%
  PT: 11.5 s
  Plat: 110.2 x10_4/uL
  RBC: 680.2 x10_4/ul
  Ret: 5.4%
  WBC: 93.3 x10_2/uL
  KIDNEY_L: 1.1 g
  KIDNEY_R: 1.1 g
  KIDNEY_TOTAL: 2.1 g
  LIVER: 11.7 g
  A/G: 2.4
  ALP: 842.2 IU/L
  ALT: 32.6 IU/L
  AST: 63 IU/L
  BUN: 17 mg/dL
  CRE: 0.5 mg/dL
  Ca: 10.6 mg/dL
  Cl: 103.8 meq/L
  DBIL: 0 mg/dL
  GLC: 206.8 mg/dL
  IP: 8.1 mg/dL
  K: 4.4 meq/L
  LDH: 92.2 IU/L
  Na: 141.2 meq/L
  PL: 145.6 mg/dL
  RALB: 4.1 g/dL
  TBIL: 0.3 mg/dL
  TC: 68.2 mg/dL
  TG: 99.6 mg/dL
  TP: 5.9 g/dL
  gamma-GTP: 1.4 IU/L
[7]
  TERMINAL_BW: 307.3 g
  APTT: 16.8 s
  Bas: 0%
  Eos: 0.8%
  Fbg: 217.6 mg/dL
  Hb: 15 g/dL
  Ht: 45%
  Lym: 82.8%
  MCH: 20.4 pg
  MCHC: 33.3%
  MCV: 61.2 fL
  Mono: 5%
  Neu: 11.4%
  PT: 11.5 s
  Plat: 112.1 x10_4/uL
  RBC: 737 x10_4/ul
  Ret: 4.1%
  WBC: 125 x10_2/uL
  KIDNEY_L: 1.2 g
  KIDNEY_R: 1.2 g
  KIDNEY_TOTAL: 2.5 g
  LIVER: 13.6 g
  A/G: 1.9
  ALP: 806.4 IU/L
  ALT: 37.8 IU/L
  AST: 71.4 IU/L
  BUN: 18.6 mg/dL
  CRE: 0.6 mg/dL
  Ca: 10.8 mg/dL
  Cl: 104.2 meq/L
  DBIL: 0.05 mg/dL
  GLC: 207.2 mg/dL
  IP: 7.9 mg/dL
  K: 4.5 meq/L
  LDH: 121.4 IU/L
  Na: 141.6 meq/L
  PL: 160.8 mg/dL
  RALB: 3.9 g/dL
  TBIL: 0.3 mg/dL
  TC: 78.8 mg/dL
  TG: 143 mg/dL
  TP: 6 g/dL
  gamma-GTP: 1 IU/L
[8]
  TERMINAL_BW: 369.5 g
  APTT: 16.3 s
  Bas: 0%
  Eos: 1.6%
  Fbg: 210.6 mg/dL
  Hb: 15.5 g/dL
  Ht: 46.4%
  Lym: 70.4%
  MCH: 19.2 pg
  MCHC: 33.5%
  MCV: 57.2 fL
  Mono: 7.6%
  Neu: 20.6%
  PT: 11.4 s
  Plat: 106.5 x10_4/uL
  RBC: 813.2 x10_4/ul
  Ret: 6%
  WBC: 123.4 x10_2/uL
  KIDNEY_L: 1.3 g
  KIDNEY_R: 1.3 g
  KIDNEY_TOTAL: 2.7 g
  LIVER: 15 g
  A/G: 1.8
  ALP: 599.4 IU/L
  ALT: 34.6 IU/L
  AST: 66.6 IU/L
  BUN: 19.6 mg/dL
  CRE: 0.6 mg/dL
  Ca: 10.3 mg/dL
  Cl: 107 meq/L
  DBIL: 0.006 mg/dL
  GLC: 213.6 mg/dL
  IP: 6.2 mg/dL
  K: 4.5 meq/L
  LDH: 89.6 IU/L
  Na: 140.4 meq/L
  PL: 153.6 mg/dL
  RALB: 3.9 g/dL
  TBIL: 0.3 mg/dL
  TC: 73.2 mg/dL
  TG: 173.4 mg/dL
  TP: 6.1 g/dL
  gamma-GTP: 1.4 IU/L
